The source made the active and inactive calls.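 How the source made its calls: active means IC50 half-maximal inhibitory concentration at or below 10 µM; inactive means IC50 above 10 µM.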

The values that follow come from PubChem BioAssay AID1926 (The Scripps Research Institute Molecular Screening Center, 2009).

The target in the assay is VIM-2 metallo-beta-lactamase (Pseudomonas aeruginosa) (UniProt Q932Y6). Kind of assay: VIM-2 inhibitor FRET-based artefact check, dose response, artefact control for selective VIM-2 inhibitor project, biochemical, FRET readout, CCF2 substrate (AID 1926). As to conditions: purified VIM-2, CCF2 FRET substrate hydrolysis.

`CCCc1cc(=O)oc2c3c(cc(OCC(=O)N[C@@H](C)C(=O)O)c12)OC(C)(C)CC3`: the IC50 (commonly the concentration at which inhibition is half-maximal) was 6.97 µM.

For `O=C(CSc1nnc(NC(=O)c2ccccc2F)s1)NCc1ccc(F)cc1`, the IC50 is 3.65 µM. The value for `Cc1cccc(-n2c(C)n[nH]c2=S)c1C` was 8.27 µM; that for `S=c1[nH]nc(-c2ccco2)n1Cc1ccccc1` was 3.51 µM.

Regarding `COc1ccc(-c2n[nH]c(=S)n2-c2ccc3c(c2)OCCO3)cc1OC`, the IC50 is 2.62 µM. The value for `O=C(CSc1nnc(NC(=O)C2CCCCC2)s1)NCc1ccco1` was 2.23 µM; that for `O=C(CSc1nnc(NC(=O)c2ccccc2)s1)NCc1ccco1` was 4.63 µM. As to `S=c1[nH]nc(-c2ccccc2)n1CC1CCCO1` (configuration not stated), the IC50 is 4.15 µM. The value for `O=P(O)(O)c1ccccc1OCc1ccccc1` was 0.689 µM. As for `COc1ccc(-c2cc(C(F)(F)F)nc(N3CCN(C)CC3)n2)cc1`, the figure is > 59.6 µM (inactive). The value for `CCCCn1c(-c2nn(C)cc2Cl)n[nH]c1=S` was 1.62 µM; that for `COCC(=O)Nc1nnc(SCC(=O)NCc2cccs2)s1` was 3.62 µM. Take `C=CCn1c(C2CC2)n[nH]c1=S`: the IC50 is 8.36 µM.

As for `COc1ccc2[nH]c(C(=O)O)c(CCN3C(=O)c4ccc(C(=O)O)cc4C3=O)c2c1`, the IC50 is 0.433 µM. As for `S=c1[nH]nc(C2CC2)n1Cc1ccccc1`, the figure is 0.94 µM. As for `Cc1nn(CCc2n[nH]c(=S)n2-c2cccc(Cl)c2)c(C)c1[N+](=O)[O-]`, the half-inhibitory concentration (IC50) is 4.31 µM. Turning to `O=C(O)C(NC(=O)c1ccccc1)=C(Cl)Cl`, the IC50 is 7.85 µM. As for `CC(=O)c1ccc(-c2ccc(Cn3c(C)nc4cc(N)c(C)nc43)cc2)cc1`, the figure is 6.28 µM; as for `Cc1cc(C)n(-c2nc(SCC(=O)O)c3c4c(sc3n2)COC(C)(C)C4)n1`, 9.07 µM. For the compound `Cn1ccnc1SCC(=O)Nc1ccc2nc(SCC(=O)NC3CC3)sc2c1`, the IC50 was 9 µM.

With `CCOC(=O)c1[nH]c(C(=O)O)c(CCC(=O)OC)c1C`, the IC50 was 5 µM. As for `CCCCn1c(-c2nn(C)c(C)c2Cl)n[nH]c1=S`, the figure is 1.99 µM; as for `Cc1cccc(C(=O)Nc2nnc(SCC(=O)NCc3ccco3)s2)c1`, “inactive”; as for `NC(=O)SCC(=O)Nc1ccccc1C(=O)O`, 5.27 µM. As for `O=C(O)CC/C(=C\c1cc([N+](=O)[O-])ccc1Cl)c1nc2ccccc2s1`, the figure is 4.17 µM; as for `O=C(CSc1nnc(NC(=O)C2CC2)s1)NCc1ccccc1Cl`, 4.62 µM.

With `O=C(O)c1[nH]c2ccc(Br)cc2c1CCN1C(=O)c2cccc([N+](=O)[O-])c2C1=O`, the IC50 was 0.716 µM. As for `S=c1[nH]nc(-c2ccc3ccccc3n2)n1-c1ccc2c(c1)OCCO2`, the figure is 7.92 µM. As for `Cc1cc(=O)oc2c3c(cc(OCC(=O)N4CCC[C@H]4C(=O)O)c12)OC(C)(C)CC3`, the figure is 4.93 µM; as for `CC(C)(C)C(=O)Nc1nnc(CSCc2ccccc2F)s1`, 1.96 µM. As for `S=c1[nH]nc(-c2cccs2)n1C1CCCCC1`, the figure is 1.31 µM.

In the case of `O=C1Nc2cc(C(=O)N3CCC(N4CCCCC4)CC3)ccc2S/C1=C\c1ccccc1`, the half-inhibitory concentration (IC50) was 4.51 µM.

For the compound `COc1cccc(-n2c(CNC(=O)OC(C)(C)C)n[nH]c2=S)c1`, the IC50 was 7.83 µM. As for `CC(C)(C)c1ccc(-c2n[nH]c(=S)n2CCCN2CCOCC2)cc1`, the IC50 is 6.73 µM. The value for `Cc1cc(OCc2cc(C(=O)O)oc2C)c2c3c(c(=O)oc2c1)CCCC3` was 0.582 µM; that for `S=c1[nH]nc(-c2ccccc2)n1Cc1ccccc1` was 8.3 µM; that for `O=C(CSc1nnc(NC(=O)c2ccccc2[N+](=O)[O-])s1)NCc1ccco1` was 2.62 µM. Consider `S=c1[nH]nc(C2CC2)n1Cc1ccco1`, for which the IC50 is 3.76 µM. As to `Cc1ccccc1C(=O)Nc1nnc(SCC(=O)NCc2ccco2)s1`, the IC50 was 1.12 µM. On to `Cc1n[nH]c(C)c1CCCCOc1ccc([N+](=O)[O-])cc1`, for which the IC50 is 5.26 µM. As for `CCCc1cc(=O)oc2c3c(cc(OCC(=O)N4CCC[C@H]4C(=O)O)c12)OC(C)(C)CC3`, the figure is 1.73 µM; as for `O=[N+]([O-])c1ccc(-c2ccccc2)c([As](=O)(O)O)c1`, 0.245 µM.

As for `O=Cc1c(NCc2ccc(Cl)cc2)c2ccccc2[nH]c1=O`, the IC50 is 9.8 µM. Regarding `CC(C)(C)CC(=O)Nc1nnc(SCC(=O)NCc2cccs2)s1`, the IC50 was 6.64 µM. As for `CCc1cc(=O)oc2c(C)c(OCC(=O)N3CCC[C@@H]3C(=O)O)ccc12`, the figure is 8.96 µM; as for `COc1ccccc1-n1c(-c2ccco2)n[nH]c1=S`, 5.21 µM. The value for `O=c1c2ccccc2cnn1Cc1n[nH]c(=S)n1C1CC2CCC1C2` (configuration not stated) was 9.66 µM; that for `O=C(CSc1nnc(NC(=O)c2cccc(F)c2)s1)NCc1ccco1` was 4.55 µM; that for `CC1=C(C(=O)O)N2C(=O)C(NC(=O)c3nn(C)cc3[N+](=O)[O-])C2SC1` (configuration not stated) was 8.54 µM. As for `C=C(C)Cn1c(-c2cccs2)n[nH]c1=S`, the figure is 1.39 µM; as for `O=C(O)c1[nH]c2ccc(Cl)cc2c1CCN1C(=O)c2ccccc2C1=O`, 0.374 µM; as for `O=C(O)Cn1cccc1C(=O)c1ccccc1`, 4.04 µM. For `Cc1c(C)c2ccc(OCC(=O)N3CCC[C@@H]3C(=O)O)c(C)c2oc1=O`, the IC50 was 2.09 µM. The value for `Cc1ccc(-c2c(C(=O)O)c(C(=O)O)c3n2CSC3)cc1` was 2.95 µM; that for `Cc1c(C)c2c(OCC(=O)N3CCC[C@H]3C(=O)O)cc3c(c2oc1=O)CCC(C)(C)O3` was 0.525 µM. As to `Cn1c(-c2sccc2OCc2ccc(Cl)cc2Cl)n[nH]c1=S`, the IC50 was 0.774 µM. The value for `CCN(CC)C(=O)CSc1nc2ccc(NC(=O)CSc3nccn3C)cc2s1` was 3.61 µM; that for `O=C(CSc1nnc(NC(=O)c2cc(Br)ccc2Cl)s1)NCC1CCCO1` (configuration not stated) was 5.87 µM. The value for `COc1cc2c(cc1OC)C(C)N(C(=O)c1nccnc1C(=O)O)CC2` (configuration not stated) was 5.74 µM; that for `Fc1ccccc1-c1n[nH]c(=S)n1Cc1ccccc1` was 4.14 µM. As to `S=c1[nH]nc(-c2ccccc2)n1C1C=CCCC1` (configuration not stated), the IC50 was 4.99 µM. The value for `Cc1c(Cl)c(-c2n[nH]c(=S)n2-c2ccc(F)cc2)nn1C` was 6.25 µM. On to `CCCCn1c(-c2ccoc2C)n[nH]c1=S`, for which the IC50 was 4.25 µM. Regarding `Cc1ccc(S(=O)(=O)n2[nH]c(=O)cc2NC(=O)c2cccs2)cc1`, the half-maximal inhibitory concentration (IC50) was 0.12 µM. The value for `O=c1[nH]c(SCc2n[nH]c(=S)n2-c2ccccc2)nc2sc3c(c12)CCC3` was 4.2 µM; that for `Cc1ccc(-n2c(-c3nn(C)c(C)c3Cl)n[nH]c2=S)cc1` was 3.72 µM. As for `CSc1nc(SCC(=O)O)c2c3c(sc2n1)COC(C)(C)C3`, the figure is 5.35 µM. For the compound `O=C(CSc1nnc(NC(=O)c2c(F)cccc2F)s1)NCc1ccccc1`, the half-inhibitory concentration (IC50) was 3.62 µM. As for `CC(C)(C)c1ccc(COc2ccsc2C(=O)O)cc1`, the figure is 5.71 µM. For the compound `O=c1[nH]c2c(s1)C(c1cccnc1)C1C3CCC(C3)C1S2` (configuration not stated), the IC50 was 0.0339 µM.

Consider `O=C(O)c1ccccc1Sc1ncnc2sc3c(c12)CCC3`, for which the IC50 was 3.91 µM. As for `O=P(O)(O)c1ccccc1OCCCCCOc1ccccc1P(=O)(O)O`, the figure is 0.862 µM; as for `C=C(c1cccc2ccccc12)P(=O)(O)O`, 2.17 µM. As for `CCCCc1cc(=O)oc2c3c(cc(OCC(=O)N4CCC[C@H]4C(=O)O)c12)OC(C)(C)CC3`, the figure is 8.93 µM; as for `Cn1c(-c2sccc2OCc2ccccc2)n[nH]c1=S`, 1.2 µM.

In the case of `Cc1cc(C(=O)OCC(=O)NC(=O)c2cccn2C)c2ccccc2n1`, the IC50 is 2.3 µM.

Regarding `Cc1cc(=O)oc2c3c(cc(OCC(=O)N[C@@H](Cc4ccccc4)C(=O)O)c12)OC(C)(C)CC3`, the IC50 is 7.51 µM. The value for `S=c1[nH]nc(-c2ccco2)n1-c1cccc2ccccc12` was 3.97 µM; that for `S=c1[nH]nc(-c2cccs2)n1Cc1ccccc1` was 0.889 µM; that for `O=C(CCN1C(=O)/C(=C/c2ccccc2F)SC1=S)NCCCn1ccnc1` was 4.49 µM. `CCCC(=O)Nc1nnc(SCC(=O)NCc2cccs2)s1`: the IC50 was 4.68 µM.

For the compound `CCCCn1c(-c2sccc2C)n[nH]c1=S`, the IC50 is 0.961 µM.

With `O=C(O)c1c(C(=O)O)c(-c2ccc(Br)cc2)n2c1CSC2`, the IC50 was 1.51 µM. The value for `CCOC(=O)N=S(N)(=O)c1ccccc1` (configuration not stated) was 4.85 µM; that for `CC1CCCC(C)N1C(=O)CSc1nnc(NC(=O)c2cccs2)s1` (configuration not stated) was 3.92 µM. The value for `COCC(C)NC(=O)c1cc2cccc([N+](=O)[O-])c2[nH]1` (configuration not stated) was 6.15 µM; that for `COc1ccccc1C(=O)Nc1nnc(SCC(=O)NCc2ccco2)s1` was 2.61 µM; that for `CCCn1c(C(C)C)n[nH]c1=S` was 3.48 µM. The value for `COc1ccccc1-c1n[nH]c(=S)n1Cc1ccco1` was 6.53 µM; that for `CC(C)(C)C(=O)Nc1nnc(SCC(=O)NCc2cccs2)s1` was 0.874 µM. Consider `Cc1cc(OCC(=O)N2CCC[C@@H]2C(=O)O)c2c(C)c(C)c(=O)oc2c1`, for which the IC50 is 5.31 µM. The value for `Cc1cccc(C2c3[nH]c4ccccc4c3CCN2C(=O)c2cc(CC(C)C)[nH]c(=O)n2)n1` (configuration not stated) was 2.74 µM.

Take `O=C(O)c1ccccc1C(=O)c1cccc2ccccc12`: the IC50 was 3.82 µM. The value for `CC1CCCCC1n1c(-c2cccnc2)n[nH]c1=S` (configuration not stated) was 4.05 µM. As for `CCn1c(-c2nn(-c3ccccc3)ccc2=O)n[nH]c1=S`, the IC50 was 8.57 µM.

As for `Cc1c(C)c2c(OCC(=O)N[C@@H](C)C(=O)O)cc3c(c2oc1=O)CCC(C)(C)O3`, the IC50 is 1.54 µM. As for `Cc1ccc(-c2n[nH]c(=S)n2-c2ccccc2)cc1`, the entry is “inactive”; as for `S=c1[nH]nc(Cn2c(-c3ccccn3)nc3ccccc32)n1-c1ccc2c(c1)OCCO2`, 4.03 µM; as for `CC(C)Cn1c(-c2ccco2)n[nH]c1=S`, 4.37 µM. As for `CSC[C@H](NC(=O)COc1cc2c(c3oc(=O)c(C)c(C)c13)CCC(C)(C)O2)C(=O)O`, the figure is 4.21 µM.

`O=C1Nc2cc(C(=O)NCCCN3CCOCC3)ccc2S/C1=C/c1ccccc1F`: the IC50 result is “inactive”. The value for `Cc1c(OCC(=O)N2CCC[C@@H]2C(=O)O)ccc2c3c(c(=O)oc12)CCC3` was 5.43 µM.
